In ChEMBL document CHEMBL5365473, “Novel Sulfonylurea-Based NLRP3 Inflammasome Inhibitor for Efficient Treatment of Nonalcoholic Steatohepatitis, Endotoxic Shock, and Colitis” (J Med Chem, 2023) one finds IC50 data, which are given here for 15 compounds.

By IC50 is commonly meant the concentration at which inhibition is half-maximal.

The test deals with NACHT, LRR and PYD domains-containing protein 3 (Mus musculus, UniProt Q8R4B8). As to the kind of experiment: Inhibition of NLRP3 inflammasome in mouse […] cells assessed as inhibition of LPS/ATP-induced IL-1 beta secretion primed with LPS for 4.5 hs followed by incubation with compound for 30 mins and later stimulation with ATP for 30 mins by ELISA. Format: cell-based, J774.A1.
Sequence of NACHT, LRR and PYD domains-containing protein 3 (Q8R4B8 whole entry, the tested form may be a part): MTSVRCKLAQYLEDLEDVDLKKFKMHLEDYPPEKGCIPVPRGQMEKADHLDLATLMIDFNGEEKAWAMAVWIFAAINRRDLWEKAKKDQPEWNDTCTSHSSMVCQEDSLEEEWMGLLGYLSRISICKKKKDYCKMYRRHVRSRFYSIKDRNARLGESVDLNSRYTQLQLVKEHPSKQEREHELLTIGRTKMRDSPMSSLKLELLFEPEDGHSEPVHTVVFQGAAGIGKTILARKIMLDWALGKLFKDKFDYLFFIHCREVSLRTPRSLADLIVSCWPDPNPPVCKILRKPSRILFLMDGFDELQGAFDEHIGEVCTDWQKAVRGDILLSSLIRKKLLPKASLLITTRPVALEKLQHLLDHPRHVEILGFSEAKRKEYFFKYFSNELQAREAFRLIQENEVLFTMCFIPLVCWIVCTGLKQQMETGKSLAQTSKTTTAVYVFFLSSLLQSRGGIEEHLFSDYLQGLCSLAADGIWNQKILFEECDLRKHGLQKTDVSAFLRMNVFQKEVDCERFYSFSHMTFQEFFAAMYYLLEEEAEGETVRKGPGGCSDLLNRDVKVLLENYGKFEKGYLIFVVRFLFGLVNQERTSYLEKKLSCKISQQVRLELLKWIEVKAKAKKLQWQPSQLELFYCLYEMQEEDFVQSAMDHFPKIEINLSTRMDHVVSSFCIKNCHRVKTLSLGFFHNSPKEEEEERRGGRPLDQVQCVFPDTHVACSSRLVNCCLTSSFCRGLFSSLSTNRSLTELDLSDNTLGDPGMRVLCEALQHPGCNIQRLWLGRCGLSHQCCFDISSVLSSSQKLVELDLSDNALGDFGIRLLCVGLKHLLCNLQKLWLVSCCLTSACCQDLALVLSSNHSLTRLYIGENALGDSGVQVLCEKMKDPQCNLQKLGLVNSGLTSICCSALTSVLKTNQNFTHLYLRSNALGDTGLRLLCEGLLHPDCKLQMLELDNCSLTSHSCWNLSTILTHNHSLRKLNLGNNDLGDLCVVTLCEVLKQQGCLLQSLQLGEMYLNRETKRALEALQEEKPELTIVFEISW

For the compound `CC(C)(C)OC(=O)Nc1ccc(-c2c3c(c(NC(=O)NS(=O)(=O)c4cc(C(C)(C)O)co4)c4c2CCC4)CCC3)cc1`, the IC50 was over 5 µM.

As for `CN(C)c1ccc(S(=O)(=O)NC(=O)Nc2c3c(cc4c2CCC4)CCC3)cc1`, the IC50 was over 10 µM.

For the compound `CC(C)(O)c1cccc(S(=O)(=O)NC(=O)Nc2c3c(cc4c2CCC4)CCC3)c1`, the half-inhibitory concentration (IC50) is over 20 µM.

Take `CC(C)(C)OC(=O)N1C=C(c2c3c(c(NC(=O)NS(=O)(=O)c4cc(C(C)(C)O)co4)c4c2CCC4)CCC3)CCC1`: the IC50 is over 5 µM.

For `CC(C)c1cccc(C(C)C)c1NC(=O)NS(=O)(=O)c1ccc(CN(C)C)cc1`, the IC50 came to 0.138 µM.

As to `CCc1cccc(CC)c1NC(=O)NS(=O)(=O)c1ccc(CN(C)C)cc1`, the half-inhibitory concentration (IC50) was over 10 µM.

`CN(C)c1ccc(-c2c3c(c(NC(=O)NS(=O)(=O)c4cc(C(C)(C)O)co4)c4c2CCC4)CCC3)cc1`: the IC50 was over 5 µM.

For `CC(C)(O)c1cc(Br)cc(S(=O)(=O)NC(=O)Nc2c3c(cc4c2CCC4)CCC3)c1`, the IC50 was over 20 µM.

In the case of `CN(C)C(=O)c1cccc(S(=O)(=O)NC(=O)Nc2c3c(cc4c2CCC4)CCC3)c1`, the half-maximal inhibitory concentration (IC50) amounted to 0.691 µM.

With `CN(C)Cc1cc(S(=O)(=O)NC(=O)Nc2c3c(cc4c2CCC4)CCC3)ccn1`, the IC50 stood at 1.68 µM.

Consider `CC(=O)c1cccc(S(=O)(=O)NC(=O)Nc2c3c(cc4c2CCC4)CCC3)c1`, for which the half-inhibitory concentration (IC50) was over 20 µM.

For the compound `CC(C)(O)c1coc(S(=O)(=O)NC(=O)Nc2c3c(c(-c4ccc(C=O)cc4)c4c2CCC4)CCC3)c1`, the IC50 was over 5 µM.

With `CN(C)Cc1cc(F)cc(S(=O)(=O)NC(=O)Nc2c3c(cc4c2CCC4)CCC3)c1`, the IC50 was determined as 0.722 µM.

With `CN(C)Cc1cccc(S(=O)(=O)NC(=O)Nc2c3c(cc4c2CCC4)CCC3)c1`, the IC50 came out at 0.168 µM.

`CN1CCN(Cc2ccc(S(=O)(=O)NC(=O)Nc3c4c(cc5c3CCC5)CCC4)cc2)CC1`: the IC50 is over 10 µM.
